Assay: xn = mol fraction of the nth substance listed

CC[NH2+]CC.O=[N+]([O-])[O-] + CC[NH3+].O=[N+]([O-])[O-]
101 kPa, frequency 0.00293 MHz
Details | electrical conductivity [S/m]
293.15 K, x1 = 0.0998 | 1.73
293.15 K, x1 = 0.3501 | 1.46
308.15 K, x1 = 0.0499 | 2.78
313.15 K, x1 = 0.1999 | 2.79
313.15 K, x1 = 0.3501 | 2.63
318.15 K, x1 = 0.0998 | 3.44
318.15 K, x1 = 0.1499 | 3.39
323.15 K, x1 = 0.1499 | 3.79
323.15 K, x1 = 0.1999 | 3.53

101 kPa
Details | viscosity [mPa·s]
293.15 K, x1 = 0.0998 | 43.2
298.15 K, x1 = 0.2501 | 38.3
308.15 K, x1 = 0.0499 | 27
313.15 K, x1 = 0.1999 | 25.1
313.15 K, x1 = 0.3501 | 24.9
318.15 K, x1 = 0.0998 | 19.7
318.15 K, x1 = 0.2998 | 20.3
323.15 K, x1 = 0.1499 | 17.9
323.15 K, x1 = 0.1999 | 19.1
328.15 K, x1 = 0.0998 | 15.3
338.15 K, x1 = 0.2998 | 12.2
353.15 K, x1 = 0.0998 | 8.96
353.15 K, x1 = 0.1499 | 8.99
353.15 K, x1 = 0.1999 | 9.7
353.15 K, x1 = 0.3501 | 9.47

CCn1cc[n+](C)c1.COCCOCCOS(=O)(=O)[O-] + O
101 kPa
Details | electrical conductivity [S/m]
298.2 K, x2 = 0.4 | 0.3
298.2 K, x2 = 0.6 | 0.51
313.2 K, x2 = 0.2 | 0.46
313.2 K, x2 = 0.8 | 1.63
328.2 K, x2 = 0.4 | 0.92
338.2 K, x2 = 0.2 | 1.05
338.2 K, x2 = 0.6 | 1.77
338.2 K, x2 = 0.8 | 2.97
343.2 K, x2 = 0.8 | 3.28
348.2 K, x2 = 0.2 | 1.36
348.2 K, x2 = 0.4 | 1.51
353.2 K, x2 = 0.6 | 2.39
353.2 K, x2 = 0.8 | 3.93

CCCC[n+]1ccn(C)c1.O=S(=O)([N-]S(=O)(=O)C(F)(F)F)C(F)(F)F + ClCCl
Details | viscosity [mPa·s]
298 K, 101 kPa, x2 = 0 | 50.4

CCCC[n+]1ccn(C)c1.O=S(=O)([N-]S(=O)(=O)C(F)(F)F)C(F)(F)F + CC1COC(=O)O1
101.3 kPa, x1 = 1
Details | viscosity [mPa·s]
288.15 K | 80.3
308.15 K | 33.95
328.15 K | 17.98

CCCC[n+]1ccn(C)c1.O=S(=O)([N-]S(=O)(=O)C(F)(F)F)C(F)(F)F + CCCCO
298 K
Details | electrical conductivity [S/m] | viscosity [mPa·s]
100 kPa, x1 = 0.05 | – | 3.52
100 kPa, x1 = 0.1 | – | 4.728
100 kPa, x1 = 0.1998 | – | 6.745
100 kPa, x1 = 0.2996 | – | 8.98
100 kPa, x1 = 0.399 | – | 11.9
100 kPa, x1 = 0.4991 | – | 15.1
100 kPa, x1 = 0.5995 | – | 19.41
100 kPa, x1 = 0.6984 | – | 24.48
100 kPa, x1 = 0.7971 | – | 31.76
100 kPa, x1 = 0.9005 | – | 39.89
100 kPa, x1 = 1 | – | 49.7
101 kPa, x2 = 0 | – | 50.4
101 kPa, x2 = 0.2936 | 0.561 | –
101 kPa, x2 = 0.317 | 0.613 | –
101 kPa, x2 = 0.5053 | 0.668 | –
101 kPa, x2 = 0.6833 | 0.653 | –
101 kPa, x2 = 0.8349 | 0.418 | –
101 kPa, x2 = 0.8623 | 0.368 | –

CC#N + Cn1cc[n+](CCCN)c1.F[B-](F)(F)F
101 kPa, x2 = 0
Details | viscosity [mPa·s]
288.15 K | 0.439
293.15 K | 0.403
298.15 K | 0.371
303.15 K | 0.345
308.15 K | 0.322
313.15 K | 0.3
318.15 K | 0.282
323.15 K | 0.265

CC(=O)c1ccccc1 + CCCC[n+]1ccn(C)c1.F[P-](F)(F)(F)(F)F
100 kPa
Details | viscosity [mPa·s]
293.15 K, x1 = 0.5999 | 49.3
303.15 K, x1 = 0.2999 | 45
313.15 K, x1 = 0.4973 | 21.6
313.15 K, x1 = 0.5999 | 16.5
323.15 K, x1 = 0.0913 | 30.2
323.15 K, x1 = 0.3908 | 20.1
323.15 K, x1 = 0.697 | 8
323.15 K, x1 = 0.7999 | 6
323.15 K, x1 = 0.95 | 1.89
333.15 K, x1 = 0.0913 | 20.3
333.15 K, x1 = 0.2999 | 17.7
333.15 K, x1 = 0.9002 | 3.48
333.15 K, x1 = 1 | 1.09

CCCC[P+](C)(CCCC)CCCC.COS(=O)(=O)[O-] + CN1CCCC1=O
101 kPa
Details | viscosity [mPa·s]
293.15 K, x1 = 0.8086 | 530
298.15 K, x1 = 0.056 | 7.6
298.15 K, x1 = 0.3764 | 80
298.15 K, x1 = 0.7129 | 290
298.15 K, x1 = 0.8086 | 370
298.15 K, x1 = 1 | 520
303.15 K, x1 = 0.0914 | 4.9
303.15 K, x1 = 0.1773 | 10.8
303.15 K, x1 = 0.2318 | 15.5
303.15 K, x1 = 0.2971 | 25
303.15 K, x1 = 0.8086 | 260
303.15 K, x1 = 0.9022 | 330
303.15 K, x1 = 0.9468 | 350
313.15 K, x1 = 0.056 | 1
313.15 K, x1 = 0.1773 | 4.5
318.15 K, x1 = 0.2318 | 7.1
318.15 K, x1 = 0.7129 | 73
318.15 K, x1 = 0.8086 | 112
323.15 K, x1 = 0.0914 | 2.5
323.15 K, x1 = 0.6014 | 30

CC#N + CCC[N+]1(C)CCCC1.O=S(=O)([N-]S(=O)(=O)C(F)(F)F)C(F)(F)F
101 kPa, x2 = 0
Details | viscosity [mPa·s]
278.15 K | 0.411
288.15 K | 0.38
298.15 K | 0.346
308.15 K | 0.311
318.15 K | 0.279
328.15 K | 0.248

CC#N + CCCC[P+](CC)(CCCC)CCCC.F[B-](F)(F)F
100 kPa, x2 = 0
Details | viscosity [mPa·s]
293.15 K | 0.354
298.15 K | 0.338
303.15 K | 0.324
308.15 K | 0.31
313.15 K | 0.298
318.15 K | 0.286

COC[n+]1ccccc1.O=S(=O)([N-]S(=O)(=O)C(F)(F)F)C(F)(F)F + O
101 kPa, x1 = 0.8483
Details | electrical conductivity [S/m] | viscosity [mPa·s]
298.1 K | – | 37.4
298.15 K | 0.608 | –
303 K | – | 30.6
333 K | – | 12

CCCC[n+]1ccn(C)c1.O=S(=O)([N-]S(=O)(=O)C(F)(F)F)C(F)(F)F + CC#N
Details | electrical conductivity, x1 = 0.0063 [S/m] | electrical conductivity, x1 = 0.01076 [S/m] | electrical conductivity, x2 = 0.661 [S/m] | electrical conductivity, x2 = 0.905 [S/m] | viscosity, x2 = 0 [mPa·s] | viscosity, x2 = 0.1534 [mPa·s] | viscosity, x2 = 0.2508 [mPa·s] | viscosity, x2 = 0.602 [mPa·s] | viscosity, x2 = 0.7518 [mPa·s]
294.5 K, 100 kPa | – | 1.58 | – | – | – | – | – | – | –
298 K, 101 kPa | 1.14 | – | 2.25 | 4.42 | 50.4 | 34.4 | 25.4 | 6.4 | 2.73

CCCC[n+]1ccn(C)c1.O=S(=O)([N-]S(=O)(=O)C(F)(F)F)C(F)(F)F + CC1CCC(=O)O1
100 kPa, frequency 0.01 MHz, x1 = 1
Details | electrical conductivity [S/m]
293.15 K | 0.337
298.15 K | 0.4
303.15 K | 0.472
308.15 K | 0.552
313.15 K | 0.64
318.15 K | 0.733
323.15 K | 0.835
